Series [1] is described as follows: UV-Vis titrations for solubility. The series is classed as physicochemical. The procedure: The study of UV-vis properties of pyridine-based polyheteroaromatic compounds detailed in this study enable the determination of their solubility in various conditions (DMSO, H2O and cacodylate buffers (10 mM sodium cacodylate+100 mM NaCl (for Caco.Na) or KCl (for Caco.K)): the simplest method for this is to measure the absorption spectra of compound 3 at various concentrations (from 0 to 32 μM); solubility of compound 3 is thus evaluated through the reporting of its absorbance at a given wavelength (herein 338 nm (A338)) as a function of the concentration of compound 3 and applying the Beer-Lambert law.

Series [2] can be described thus: Fluorescence quantum yield. The class given is physicochemical. The note with it: anthracene in ethanol as reference. As for the experimental part: Pyridine-based polyheteroaromatic compounds detailed in this study are characterized by a strong fluorescence. Remarkably, the quantum yield is not affected by the nature of the solvent they are used in, from pure organic (e.g. DMSO) to physiological conditions (e.g. buffer: 10 mM sodium cacodylate+100 mM KCl, pH 7.2, see Table). The modification of the fluorescence properties of studied compounds upon interaction with DNA enables to compare their apparent binding affinity for several quadruplexes of biological relevance (27).
NB: the quantum yields (and standard deviations (s.d.)) of compound 3 were measured in CH2Cl2 (DCM) and water, with anthracene in ethanol as reference.

Series [3] relates to F21T (human telomeric quadruplex-DNA). The series can be described thus: FRET-melting assay with F21T. The class given is binding. As to conditions: for ΔT1/2 F21T: 0.2 μM F21T, 1 μM compound; for F21T stabilization maintained: sodium buffer. The procedure: Stabilization, and so interaction, of compounds with quadruplex-structure is monitored via FRET-melting assay, in a version that also enables the determination of the quadruplex-over duplex-DNA selectivity as well as the intra-quadruplex selectivity (17).
FRET assay is performed with oligonucleotides that mimic the human or plasmodium telomeric sequences, and equipped with FRET partners at each extremities: F21T (FAM-G3[T2AG3]3-Tamra,) FPf1T (FAM-G3[T3AG3]3-Tamra) and FPf8T (FAM-G3[T2CAG3]3-Tamra) with FAM: 6-carboxyfluorescein and Tamra: 6-carboxy-tetramethylrhodamine). Measurements were made with excitation at 492 nm and detection at 516 nm.
Fluorescence melting were carried out. The results are given on FIG. 3A-FIG. 3C. The experiments were carried out with 0.2 μM of F21T, FPf1T or FPf8T in a buffer containing 10 mM lithium cacodylate pH 7.2 and 100 mM NaCl or KCl (see example of F21T below, NaCl (left) and KCl (right)); the melting of the quadruplex-DNA was monitored alone and in the presence of 1 μM (5 equiv.) of compound 3.
Fluorescence melting are carried out with 0.2 μM of F21T in a buffer containing 10 mM lithium cacodylate pH 7.2 and 100 mM NaCl; the melting of the G-quadruplex was monitored alone and in the presence of 1 μM of compound 3 without or with excess (1, 3 and 10 μM) of duplex-DNA competitor ds26 (a 26 base-pair duplex-DNA comprised of the self complementary sequence [5′-[…]-3′]). The results are given on FIG. 4
Fluorescence melting experiments are carried out with 0.2 μM of F21T in a buffer containing 10 mM lithium cacodylate pH 7.2 and 100 mM NaCl; the melting of the G-quadruplex was monitored alone and in the presence of 1 μM of compound 3 without or with excess (1, 3 and 10 μM) of quadruplex-DNA competitors, both TG5T ([(5′-TG5T-3′)4], a tetramolecular quadruplex-DNA used in previous study (21) or c-myc ([5′-[…]-3′], a sequence present in the promoter region of the oncogene c-myc, highly suspected to fold into an intramolecular quadruplex-structure (22-25). The results are given on FIG. 5A-FIG. 5B.
FIG. 16 gives results obtained in FRET-melting, using the same sodium conditions as above defined in a) and b), with compounds 3 and 4. The melting of the Fluorescently labelled quadruplex F21T was monitored alone and in the presence of 1 μM of compound 3 or compound 4 without or with excess (1.3 and 10 μM) of duplex-DNA competitor ds26 (a 26 base-pair duplex DNA comprised the above mentioned self-complementary sequence [5′-[…]-3′]).

For series [4], the system named is c-kit2 quadruplex-DNA. Nature of the series: Circular dichroism with c-kit2. The class given is binding. As to conditions: 3 μM c-kit2, 30 μM compound, 100 mM KCl, 285 nm. As for the experimental part: Circular dichroism (CD) enables a deep study of the modification of the DNA structure upon the binding of a ligand; it thus reflects the affinity of the ligand to its target, and can also provide insight into its binding mode (Paramasivan et al, Methods, 2007, 43, 324).
The intra-quadruplex selectivity is evaluated through CD by comparison of experiments carried out with 22AG (see above) and with two other quadruplex-structures: c-myc and c-kit2 (see above). The results are given on FIG. 11A and FIG. 11B. To a 3 μM solution of both c-kit2 (left) and c-myc (right) in cacodylate buffer (10 mM sodium cacodylate+100 mM KCl) is added an excess of compound 3 (30 μM, 10 equiv.).

Series [5] has as its system ds17 (17 base-pair duplex-DNA). Nature of the series: Fluorescence titration with ds17. The note with it: 0.25 μM compound, cacodylate buffer + 100 mM KCl, λex=340 nm. The class given is binding. As for the experimental part:
The quadruplex-over duplex-selectivity is evaluated through fluorescence titrations by comparison of experiments carried out with 22AG (see above) and with a short duplex-DNA: ds17, which is a 17 base-pair duplex-DNA that represents a biological sequence used in previous studies (28); the sequences of the two complementary strands are the following: [5′-CCAGTTCGTAGTAACCC-3′]/[5′-GGGTTACTACGAACTGG-3′]. Duplex-structure is prepared by heating the two corresponding complementary strands at 90° C. for 5 min in a 10 mM sodium cacodylate buffer pH 7.3, 100 mM KCl followed by a slow cooling over 6 hrs. Concentrations are determined by UV-Vis measurements (after thermal denaturation, 5 min at 85° C.) at 260 nm before use.

Each structure is given as a SMILES string.

For `c1cc(-c2cnc(-c3cccc(-c4cnco4)n3)o2)nc(-c2cnc(-c3cccc(-c4cnco4)n3)o2)c1` [compound 3, 2,6-bis{2-[6-(oxazol-5-yl)pyridin-2-yl]oxazol-5-yl}pyridine], the solubility entry in series [1] (DMSO, H2O and aqueous cacodylate buffers (Na+ or K+-rich), A338, 0 to 32 μM) was “soluble in all the solvent systems used herein”. In addition, the self-aggregation result in series [1] (within the 0 to 32 μM concentration range, all solvent systems) is reported as “does not self-aggregate”. Moreover, the Quantum yield in series [2] (DCM (CH2Cl2)) is 50.35%; in series [2] (Water), 50.37%. For the same compound, the “ΔT1/2 F21T” value amounted to 1.3 °C in series [3] (K+ (100 mM KCl)) and 14.6 °C in series [3] (Na+ (100 mM NaCl)). For the same compound, the F21T stabilization maintained stood at 61% in series [3] (1 μM of TG5T competitor); 42% in series [3] (1 μM of c-myc competitor); 37% in series [3] (3 μM of TG5T competitor); 15% in series [3] (3 μM of c-myc competitor); 17% in series [3] (10 μM of TG5T competitor); 1% in series [3] (10 μM of c-myc competitor). Moreover, the F21T stabilization maintained in series [3] (in presence of 1, 3 or 10 μM of ds26 duplex competitor) is over 91%. For the same compound, the “CD signal of c-kit2” value in series [4] was “modification of the amplitude of the CD signal”. Moreover, in series [5], the “fluorescence of compound upon addition of ds17” value is given as “do not result in a progressive quench of the fluorescence”.

Source of the values: patent publication US20110201648A1, “POLY-HETEROARYL DERIVATIVES FOR THE TREATMENT OF CANCER” (INSTITUT CURIE, priority 2008, published 2011).
